In patent publication US9249114B2, “Thiazole derivatives” (Merck Patent GmbH, priority 2011, dated 2016):

Assays:
[1] = biological target: TANK binding kinase (TBK1) (Homo sapiens (Human), UniProt Q9UHD2); assay: TBK1 enzyme assay (384-well Flashplate kinase assay); format: biochemical; conditions: 10 μM ATP, 120 Min at 30° C.
Procedure: Test for the Inhibition of TBK1
The kinase assay is performed as 384-well Flashplate assay (for e.g. Topcount measurement. 0.6 nM TANK binding kinase (TBK1), 800 nM biotinylated MELK-derived peptide (Biotin-Ah-Ah-[…]) SEQ ID NO: 2 and 10 μM ATP (spiked with 0.25 μCi ^33P-ATP/well) are incubated in a total volume of 50 μl (10 mM MOPS, 10 mM Mg-acetat, 0.1 mM EGTA, 1 mM DTT, 0.02% Brij35, 0.1% BSA, pH 7.5) with or without test compound for 120 Min at 30° C. The reaction is stopped with 25 μl 200 mM EDTA. After 30 Min at room temperature the liquid is removed and each well washed thrice with 100 μl 0.9% sodium chloride solution. Nonspecific reaction is determined in presence of 100 nM Staurosporine. Radioactivity is measured in a Topcount (PerkinElmer). Results (e.g. IC50-values) are calculated with program tools provided by the IT-department (e.g. AssayExplorer, Symyx).

IKKε = IKKε (Homo sapiens (Human), UniProt Q14164); assay: IKKε kinase assay (384-well Flashplate); format: biochemical; conditions: 10 μM ATP, 2 hours at 30° C.; read-out: IKKε enzyme assay IC50
Sequence of IKKε (Q14164 whole entry): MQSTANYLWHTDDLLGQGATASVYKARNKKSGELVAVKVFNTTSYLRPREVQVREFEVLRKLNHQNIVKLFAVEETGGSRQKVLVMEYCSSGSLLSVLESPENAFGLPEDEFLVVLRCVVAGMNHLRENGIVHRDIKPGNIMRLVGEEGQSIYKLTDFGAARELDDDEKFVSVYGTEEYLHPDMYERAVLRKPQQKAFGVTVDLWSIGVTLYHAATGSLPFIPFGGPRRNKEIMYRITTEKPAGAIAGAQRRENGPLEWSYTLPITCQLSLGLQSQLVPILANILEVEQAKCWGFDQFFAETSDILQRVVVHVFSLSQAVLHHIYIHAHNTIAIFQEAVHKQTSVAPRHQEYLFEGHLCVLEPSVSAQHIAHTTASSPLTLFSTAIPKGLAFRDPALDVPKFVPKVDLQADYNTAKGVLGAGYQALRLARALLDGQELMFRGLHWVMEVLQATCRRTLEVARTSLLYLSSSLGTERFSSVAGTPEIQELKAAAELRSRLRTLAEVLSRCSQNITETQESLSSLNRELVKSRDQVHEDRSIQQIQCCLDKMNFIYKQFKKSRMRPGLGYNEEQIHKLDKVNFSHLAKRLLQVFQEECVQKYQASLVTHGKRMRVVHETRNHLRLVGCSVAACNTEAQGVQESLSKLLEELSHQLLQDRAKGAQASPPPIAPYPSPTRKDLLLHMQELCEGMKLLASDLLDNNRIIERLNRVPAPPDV
Procedure: Test for the Inhibition of IKKε
IKKε—Kinase Assay (IKKepsilon)
The kinase assay is performed either as 384-well Flashplate assay (for e.g. Topcount measurement). […] The reaction is stopped with 25 μl 200 mM EDTA. After 30 Min at room temperature the liquid is removed and each well washed thrice with 100 μl 0.9% sodium chloride solution. […] Radioactivity is measured with Topcount (PerkinElmer). Results (e.g. IC50-values) are calculated with program tools provided by the IT-department (e.g. AssayExplorer, Symyx).

Sequence of TANK binding kinase (TBK1) (Q9UHD2 whole entry): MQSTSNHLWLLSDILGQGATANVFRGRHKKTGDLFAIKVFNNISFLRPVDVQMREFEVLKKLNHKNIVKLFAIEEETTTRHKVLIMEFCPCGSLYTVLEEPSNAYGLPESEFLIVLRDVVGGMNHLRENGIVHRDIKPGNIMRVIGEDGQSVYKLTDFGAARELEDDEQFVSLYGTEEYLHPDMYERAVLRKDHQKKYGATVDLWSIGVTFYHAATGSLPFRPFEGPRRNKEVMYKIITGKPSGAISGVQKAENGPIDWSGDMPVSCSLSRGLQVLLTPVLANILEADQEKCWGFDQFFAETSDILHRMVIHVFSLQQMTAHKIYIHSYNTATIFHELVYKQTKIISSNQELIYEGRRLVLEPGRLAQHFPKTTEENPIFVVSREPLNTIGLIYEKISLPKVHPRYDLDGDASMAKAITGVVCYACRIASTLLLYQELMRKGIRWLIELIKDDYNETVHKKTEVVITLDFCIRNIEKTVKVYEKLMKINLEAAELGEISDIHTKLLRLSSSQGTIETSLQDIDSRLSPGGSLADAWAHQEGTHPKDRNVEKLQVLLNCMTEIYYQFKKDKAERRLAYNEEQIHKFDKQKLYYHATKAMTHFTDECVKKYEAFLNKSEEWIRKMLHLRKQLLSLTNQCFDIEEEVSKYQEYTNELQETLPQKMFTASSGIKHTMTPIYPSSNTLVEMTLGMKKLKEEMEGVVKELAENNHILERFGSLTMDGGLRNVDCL

| SMILES | IC50 [1] | IC50 (IKKε) |
| --- | --- | --- |
| CN1CCN(Cc2ccc(C(=O)Nc3sc(-c4ccnc(Cl)c4)nc3C(N)=O)cc2)CC1 [Compound A5, 2-(2-chloro-pyridin-4-yl)-5-[4-(4-methyl-piperazin-1-ylmethyl)-benzoylamino]-thiazole-4-carboxylic acid amide] | 1.4 µM |  |
| CN1CCN(Cc2ccc(C(=O)Nc3sc(-c4ccnc(C(F)(F)F)c4)nc3C(N)=O)cc2)CC1 [Compound A8, 5-[4-(4-methyl-piperazin-1-ylmethyl)-benzoylamino]-2-(2-trifluoromethyl-pyridin-4-yl)-thiazole-4-carboxylic acid amide] | 6.3 µM | 2.1 µM |
| CN1CCN(Cc2ccc(C(=O)Nc3sc(-c4ccnc(C#N)c4)nc3C(N)=O)cc2)CC1 [Compound A9, 2-(2-cyano-pyridin-4-yl)-5-[4-(4-methyl-piperazin-1-ylmethyl)-benzoylamino]-thiazole-4-carboxylic acid amide] | 2 µM | 0.74 µM |
| CN1CCN(Cc2ccc(Nc3sc(-c4ccncc4)nc3C(N)=O)cc2)CC1 [Compound A14, 5-[4-(4-methyl-piperazin-1-ylmethyl)-phenylamino]-2-pyridin-4-yl-thiazole-4-carboxylic acid amide] | 1.7 µM | 0.42 µM |
| Cc1cc(-c2nc(C(N)=O)c(NC(=O)c3ccc(CN4CCN(C)CC4)cc3)s2)cc(C)n1 [Compound A16, 2-(2,6-dimethyl-pyridin-4-yl)-5-[4-(4-methyl-piperazin-1-ylmethyl)-benzoylamino]-thiazole-4-carboxylic acid amide] |  | 3.8 µM |
| COc1ccc(C(=O)Nc2sc(-c3ccncc3)nc2C(N)=O)cc1OC [Compound A41, 5-(3,4-dimethoxy-benzoylamino)-2-pyridin-4-yl-thiazole-4-carboxylic acid amide] | 1.5 µM |  |
| NC(=O)c1nc(-c2ccncc2)sc1NC(=O)c1cnn(CC2CCNCC2)c1 [Compound A44, 5-[(1-piperidin-4-ylmethyl-1H-pyrazole-4-carbonyl)-amino]-2-pyridin-4-yl-thiazole-4-carboxylic acid amide] | 7.9 µM |  |
| CN1CCN(Cc2ccc(C(=O)Nc3sc(-c4ccncc4)nc3C#N)cc2)CC1 [Compound A45, N-(4-cyano-2-pyridin-4-yl-thiazol-5-yl)-4-(4-methyl-piperazin-1-ylmethyl)-benzamide] | 8.2 µM |  |
| NC(=O)c1nc(-c2ccncc2)sc1NC(=O)c1ccccc1 [Compound A56, 5-benzoylamino-2-pyridin-4-yl-thiazole-4-carboxylic acid amide] | 3.6 µM |  |
| NC(=O)c1nc(-c2ccncc2)sc1NC(=O)c1cccs1 [Compound A62, 2-pyridin-4-yl-5-[(2-thienylcarbonyl)amino]-1,3-thiazole-4-carboxamide] | 2 µM |  |
| NC(=O)c1nc(-c2ccncc2)sc1NC(=O)c1ccoc1 [Compound A64, 5-(3-furoylamino)-2-pyridin-4-yl-1,3-thiazole-4-carboxamide] | 4.6 µM |  |

More lines, in order of falling IC50 [1], values ahead:

| IC50 [1] | IC50 (IKKε) | SMILES |
| --- | --- | --- |
| 1.2 µM |  | CC(C)(C)OC(=O)N1CCN(c2ccc(C(=O)Nc3sc(-c4ccncc4)nc3C(N)=O)cn2)CC1 [Compound A39, 4-[5-(4-Carbamoyl-2-pyridin-4-yl-thiazol-5-ylcarbamoyl)-pyridin-2-yl]-piperazine-1-carboxylic acid tert-butyl ester] |
| 1.16 µM |  | NC(=O)c1nc(-c2ccncc2)sc1NC(=O)c1ccc(CN2CCCC2)cc1 [Compound A38, 2-pyridin-4-yl-5-(4-pyrrolidin-1-ylmethyl-benzoylamino)-thiazole-4-carboxylic acid amide] |
| 0.645 µM |  | NC(=O)c1nc(-c2ccncc2)sc1NC(=O)c1ccc(CN2CCOCC2)cc1 [Compound A36, 5-(4-morpholin-4-ylmethyl-benzoylamino)-2-pyridin-4-yl-thiazole-4-carboxylic acid amide] |
| 0.63 µM | 0.54 µM | CN1CCN(Cc2ccc(C(=O)Nc3sc(-c4ccnc(F)c4)nc3C(N)=O)cc2)CC1 [Compound A6, 2-(2-fluoro-pyridin-4-yl)-5-[4-(4-methyl-piperazin-1-ylmethyl)-benzoylamino]-thiazole-4-carboxylic acid amide] |
| 0.58 µM |  | CN(C)C(=O)CCCCCc1ccc(C(=O)Nc2sc(-c3ccncc3)nc2C(N)=O)cc1 [Compound A35, 5-[4-(5-dimethylcarbamoyl-pentyl)-benzoylamino]-2-pyridin-4-yl-thiazole-4-carboxylic acid amide] |
| 0.41 µM | 0.39 µM | Cc1cc(-c2nc(C(N)=O)c(NC(=O)c3ccc(CN4CCN(C)CC4)cc3)s2)ccn1 [Compound A7, 5-[4-(4-methyl-piperazin-1-ylmethyl)-benzoylamino]-2-(2-methyl-pyridin-4-yl)-thiazole-4-carboxylic acid amide] |
| 0.31 µM |  | CN1CCN(C(=O)c2ccc(C(=O)Nc3sc(-c4ccncc4)nc3C(N)=O)cc2)CC1 [Compound A34, 5-[4-(4-methyl-piperazine-1-carbonyl)-benzoylamino]-2-pyridin-4-yl-thiazole-4-carboxylic acid amide] |
| 0.3 µM |  | CN1CCN(Cc2ccc(C(=O)Nc3sc(-c4ccncc4)nc3C(N)=O)cc2)CC1 [Compound A4, 5-[4-(4-methyl-piperazin-1-ylmethyl)-benzoylamino]-2-pyridin-4-yl-thiazole-4-carboxylic acid amide] |
| 0.26 µM |  | COCCNCc1ccc(C(=O)Nc2sc(-c3ccncc3)nc2C(N)=O)cc1 [Compound A33, 5-{4-[(2-methoxy-ethylamino)-methyl]-benzoylamino}-2-pyridin-4-yl-thiazole-4-carboxylic acid amide] |
| 0.24 µM |  | CNC(=O)CCCCc1ccc(C(=O)Nc2sc(-c3ccncc3)nc2C(N)=O)cc1 [Compound A32, 5-[4-(4-methylcarbamoyl-butyl)-benzoylamino]-2-pyridin-4-yl-thiazole-4-carboxylic acid amide] |
| 0.21 µM |  | CN(C)CCNCc1ccc(C(=O)Nc2sc(-c3ccncc3)nc2C(N)=O)cc1 [Compound A31, 5-{4-[(2-dimethylamino-ethylamino)-methyl]-benzoylamino}-2-pyridin-4-yl-thiazole-4-carboxylic acid amide] |
| 0.2 µM |  | CC(=O)N1CCC(Cc2ccc(C(=O)Nc3sc(-c4ccncc4)nc3C(N)=O)cc2)CC1 [Compound A30, 5-[4-(1-acetyl-piperidin-4-ylmethyl)-benzoylamino]-2-pyridin-4-yl-thiazole-4-carboxylic acid amide] |
| 0.19 µM |  | NC(=O)c1nc(-c2ccncc2)sc1NC(=O)c1ccc(CC2CCNCC2)cc1 [Compound A29, 5-(4-piperidin-4-ylmethyl-benzoylamino)-2-pyridin-4-yl-thiazole-4-carboxylic acid amide] |
| 0.16 µM |  | NC(=O)c1nc(-c2ccncc2)sc1NC(=O)c1ccc(CCCCCC(=O)O)cc1 [Compound A28, 6-[4-(4-carbamoyl-2-pyridin-4-yl-thiazol-5-ylcarbamoyl)-phenyl]-hexanoic acid] |
| 0.099 µM |  | CN(C)C(=O)CCCCc1ccc(C(=O)Nc2sc(-c3ccncc3)nc2C(N)=O)cc1 [Compound A25, 5-[4-(4-dimethylcarbamoyl-butyl)-benzoylamino]-2-pyridin-4-yl-thiazole-4-carboxylic acid amide] |
| 0.094 µM |  | NC(=O)c1nc(-c2ccncc2)sc1NC(=O)c1ccc(CC2CCN(C(N)=O)CC2)cc1 [Compound A23, 4-[4-(4-carbamoyl-2-pyridin-4-yl-thiazol-5-ylcarbamoyl)-benzyl]-piperidine-1-carboxylic acid amide] |
